Laboratory results reported in patent US11325906B2, “Chemical compounds” (AstraZeneca AB, priority 2019, dated 2022).

Columns and labels:
[1] = test system: DLD1 cells; assay: PARP proliferation assay (4 day compound dosing), WT DLD1; format: cell-based; conditions: Homo sapiens, 96 h, WT DLD-1 cells, read-out: WT DLD-1 prolif 4 d IC50
[2] = test system: BRCA2 (−/−) DLD1 cells; assay: PARP proliferation assay (4 day compound dosing), BRCA2 (−/−) DLD1; format: cell-based; conditions: Homo sapiens, 96 h, BRCA2 −/− DLD-1 cells, read-out: BRCA2 −/− DLD-1 prolif 4 d IC50

Q: Which results are given for `CCc1cc2ncc(CN3CCN(c4ccc(C(=O)NC)nc4C)CC3)cc2[nH]c1=O` [Example 31, 5-[4-[(7-ethyl-6-oxo-5H-1,5-naphthyridin-3-yl)methyl]piperazin-1-yl]-N,6-dimethyl-pyridine-2-carboxamide]?
A: IC50 [1]: > 30000 nM; IC50 [2]: 4 nM
